Data: US11363816B2, “4-amino-6-(heterocyclic)picolinates and 6-amino-2-(heterocyclic)pyramidine-4-carboxylates and their use as herbicides” (Dow AgroSciences LLC, priority 2017, dated 2022)

Assays:
Assay type in all cases: in vivo
[1] = tested on: ANTAR=Anthemis arvensis (field chamomile); assay: Postemergent herbicidal activity in the greenhouse; conditions: 21-28 DAAA
Procedure: (§1) Seeds of the desired test plant species were planted in Sun Gro MetroMix® 306 planting mixture, which typically has a pH of 6.0 to 6.8 and an organic matter content of about 30 percent, in plastic pots with a surface area of 103.2 square centimeters (cm^2). When required to ensure good germination and healthy plants, a fungicide treatment and/or other chemical or physical treatment was applied. The plants were grown for 7-36 days (d) in a greenhouse with an approximate 14 hour (h) photoperiod which was maintained at about 18° C. during the day and 17° C. during the night. Nutrients and water were added on a regular basis and supplemental lighting was provided with overhead metal halide 1000-Watt lamps as necessary. The plants were employed for testing when they reached the second or third true leaf stage.
(§2) An aliquot of formulated Compound 5 (100 grams acid equivalent per liter (g ae/L); emusifiable concentrate (EC)), Compound 6 (100 g ae/L; EC) or Compound 7 (100 g ae/L; EC) was placed in a 25 mL glass vial and diluted in a volume of 1.25% (volume per volume (v/v)) aqueous Actirob B esterified rapeseed oil to obtain a stock solution. The concentrated stock solutions were diluted with an aqueous mixture of 1.25% v/v of aqueous Actirob B esterified rapeseed oil to provide the appropriate application rates. Compound requirements are based upon a 12 mL application volume at a rate of 187 liters per hectare (L/ha). Formulated compounds were applied to the plant material with an overhead Mandel track sprayer equipped with 8002E nozzles calibrated to deliver 187 L/ha over an application area of 0.503 square meters (m^2) at a spray height of 18 inches ([…]) above average plant canopy. Control plants were sprayed in the same manner with the solvent blank.
(§3) The treated plants and control plants were placed in a greenhouse as described above and watered by subirrigation to prevent washoff of the test compounds. After 20-22 d, the condition of the test plants as compared with that of the control plants was determined visually and scored on a scale of 0 to 100 percent where 0 corresponds to no injury and 100 corresponds to complete kill. […]
(§4) The values reported are means.

[2] = tested on: CHEAL=Chenopodium album L. (common lambsquarters); assay: Postemergent herbicidal activity in the greenhouse; conditions: 21-28 DAAA
Procedure: as §1, §2, §3, §4

[3] = tested on: CIRAR=Cirsium arvense (L.) Scop. (Canada thistle); assay: Postemergent herbicidal activity in the greenhouse; conditions: 21-28 DAAA
Procedure: as §1, §2, §3, §4

[4] = tested on: KCHSC=Kochia scoparia (L.) Schrad. (Kochia); assay: Postemergent herbicidal activity in the greenhouse; conditions: 21-28 DAAA
Procedure: as §1, §2, §3, §4

[5] = tested on: MATCH=Matricaria recutita L. (wild chamomile); assay: Postemergent herbicidal activity in the greenhouse; conditions: 21-28 DAAA
Procedure: as §1, §2, §3, §4

[6] = tested on: MATIN=Matricaria inodora (scentless mayweed); assay: Postemergent herbicidal activity in the greenhouse; conditions: 21-28 DAAA
Procedure: as §1, §2, §3, §4

[7] = tested on: PAPRH=Papaver rhoeas L. (common poppy); assay: Postemergent herbicidal activity in the greenhouse; conditions: 21-28 DAAA
Procedure: as §1, §2, §3, §4

[8] = tested on: POLCO=Polygonum convolvulus L. (wild buckwheat); assay: Postemergent herbicidal activity in the greenhouse; conditions: 21-28 DAAA
Procedure: as §1, §2, §3, §4

[9] = tested on: Res-PAPRH=Papaver rhoeas L. (common poppy) resistant to tribenuron and thifensulfuron (ALS) and 2,4-D; assay: Postemergent herbicidal activity in the greenhouse; conditions: 21-28 DAAA
Procedure: as §1, §2, §3, §4

[10] = tested on: SINAR=Sinapis arvensis L. (wild mustard); assay: Postemergent herbicidal activity in the greenhouse; conditions: 21-28 DAAA
Procedure: as §1, §2, §3, §4

[11] = tested on: VERSS=Veronica spp (speedwell); assay: Postemergent herbicidal activity in the greenhouse; conditions: 21-28 DAAA
Procedure: as §1, §2, §3, §4

[12] = tested on: CHEAL=Chenopodium album L. (common lambsquarters); assay: Postemergence field trial, Ellerslie, Alberta, Canada
Procedure: (§5) Field trials were established in Canada (in Ellerslie, Alberta; Nisku, Alberta and Hanley, Saskatchewan) to evaluate the efficacy of Compound 5, Compound 6, and Compound 7. Trials were designed as randomized complete blocks with four replicates. Trials were established in spring wheat with natural weed population with plot sizes of 2-3 meters (m) by 8-10 m (width×length). The crops were grown using normal cultural practices for fertilization, seeding, and maintenance to ensure good growth of the crop.
(§6) All herbicide treatments were applied post-emergence with applications made to the crops at BBCH (Phenological development stages of a plant) 14 to 22 growth stage. Herbicides were applied with backpack or bicycle sprayers using carbon dioxide (CO2) as a propellant. The sprayers utilized flat fan air-induction spray nozzles calibrated to deliver a uniform spray pattern that provided thorough coverage of the foliage using a 100 L/ha spray volume. All treatments were applied with methylated seed oil (MSO) at 1.25% v/v. Phytotoxicity to the weeds was assessed visually at several intervals after application as percent overall control, compared to an untreated control plot. In general, four replicates were assessed for each treatment. All treatment results are an average of four replicates.
(§7) Compound 5, Compound 6 and Compound 7 were applied as emulsifiable concentrate (EC) formulations at 100 g ae/L EC, respectively.

[13] = tested on: POLCO=Polygonum convolvulus L. (wild buckwheat); assay: as above
Procedure: as §5, §6, §7

[14] = tested on: STEME=Stellaria media (L.) Vill. (common chickweed); assay: as above
Procedure: as §5, §6, §7

[15] = tested on: weeds; assay: Herbicidal activity, overall conclusion from greenhouse and field results; conditions: summary of Tables 1 to 8
Description: These new chemical herbicides offer a broader spectrum of weed control, higher activity against weeds, and provide a way to address the management of weeds that developed resistance with respect to herbicides traditionally used to control them.

[16] = tested on: CHEAL=Chenopodium album L. (common lambsquarters); assay: Postemergence field trial, Hanley, Saskatchewan, Canada; conditions: 66DAAA
Procedure: as §5, §6, §7

[17] = tested on: KCHSC=Kochia scoparia (L.) Schrad. (Kochia); assay: as above; conditions: 66DAAA
Procedure: as §5, §6, §7

| SMILES | Percent (%) Visual Control ANTAR ([1]; 10 g ae/ha) | Percent (%) Visual Control ANTAR ([1]; 20 g ae/ha) | Percent (%) Visual Control CHEAL ([2]; 10 g ae/ha) | Percent (%) Visual Control CHEAL ([2]; 20 g ae/ha) | Percent (%) Visual Control CIRAR ([3]; 10 g ae/ha) | Percent (%) Visual Control CIRAR ([3]; 20 g ae/ha) | Percent (%) Visual Control KCHSC ([4]; 10 g ae/ha) | Percent (%) Visual Control KCHSC ([4]; 20 g ae/ha) | Percent (%) Visual Control MATCH ([5]; 10 g ae/ha) | Percent (%) Visual Control MATCH ([5]; 20 g ae/ha) | Percent (%) Visual Control MATIN ([6]; 10 g ae/ha) | Percent (%) Visual Control MATIN ([6]; 20 g ae/ha) | Percent (%) Visual Control PAPRH ([7]; 10 g ae/ha) | Percent (%) Visual Control PAPRH ([7]; 20 g ae/ha) | Percent (%) Visual Control POLCO ([8]; 10 g ae/ha) | Percent (%) Visual Control POLCO ([8]; 20 g ae/ha) | Percent (%) Visual Control Res-PAPRH ([9]; 10 g ae/ha) | Percent (%) Visual Control Res-PAPRH ([9]; 20 g ae/ha) | Percent (%) Visual Control SINAR ([10]; 10 g ae/ha) | Percent (%) Visual Control SINAR ([10]; 20 g ae/ha) | other results |
| --- | --- | --- | --- | --- | --- | --- | --- | --- | --- | --- | --- | --- | --- | --- | --- | --- | --- | --- | --- | --- | --- |
| C#CCOC(=O)c1nc(-c2ccc3cc[nH]c3c2F)c(F)c(N)c1Cl [Compound 5, prop-2-yn-1-yl 4-amino-3-chloro-5-fluoro-6-(7-fluoro-1H-indol-6-yl)picolinate] | 100% | 83.3% | 97.5% | 100% | 56.7% | 58.3% | 76.7% | 82.7% | 54.2% | 68.9% | 100% | 100% | 95% | 100% | 100% | 100% | 87.5% | 100% | 89% | 96.7% | Percent (%) Visual Control VERSS ([11]; 10 g ae/ha): 77.5%; Percent (%) Visual Control VERSS ([11]; 20 g ae/ha): 80.8%; Percent (%) Visual Control CHEAL 51DAAA ([12]; 10 g ae/ha): 98%; Percent (%) Visual Control CHEAL 51DAAA ([12]; 20 g ae/ha): 98%; Percent (%) Visual Control POLCO 51DAAA ([13]; 10 g ae/ha): 76.3%; Percent (%) Visual Control POLCO 51DAAA ([13]; 20 g ae/ha): 91%; Percent (%) Visual Control STEME 51DAAA ([14]; 10 g ae/ha): 66.3%; Percent (%) Visual Control STEME 51DAAA ([14]; 20 g ae/ha): 83.3%; herbicidal activity (overall conclusion) [15]: superior herbicidal activity over Compound 7 |
| Nc1c(F)c(-c2ccc3cc[nH]c3c2F)nc(C(=O)OCc2ccccc2)c1Cl [Compound 7, benzyl 4-amino-3-chloro-5-fluoro-6-(7-fluoro-1H-indol-6-yl)picolinate, reference compound] | 99.3% | 99.3% | 92.5% | 95% | 30% | 46.7% | 65% | 73.3% | 57% | 50.5% | 100% | 100% | 85% | 100% | 97.5% | 98.8% | 92.5% | 92.5% | 90% | 94% | Percent (%) Visual Control VERSS ([11]; 10 g ae/ha): 72.5%; Percent (%) Visual Control VERSS ([11]; 20 g ae/ha): 67.5%; Percent (%) Visual Control CHEAL ([16]; 10 g ae/ha): 95.5%; Percent (%) Visual Control CHEAL ([16]; 20 g ae/ha): 98.5%; Percent (%) Visual Control CHEAL ([16]; 40 g ae/ha): 98.8%; Percent (%) Visual Control KCHSC ([17]; 10 g ae/ha): 45%; Percent (%) Visual Control KCHSC ([17]; 20 g ae/ha): 72%; Percent (%) Visual Control KCHSC ([17]; 40 g ae/ha): 78.8%; Percent (%) Visual Control CHEAL 51DAAA ([12]; 10 g ae/ha): 94.8%; Percent (%) Visual Control CHEAL 51DAAA ([12]; 20 g ae/ha): 98%; Percent (%) Visual Control CHEAL 51DAAA ([12]; 40 g ae/ha): 98%; Percent (%) Visual Control POLCO 51DAAA ([13]; 10 g ae/ha): 79%; Percent (%) Visual Control POLCO 51DAAA ([13]; 20 g ae/ha): 92.8%; Percent (%) Visual Control POLCO 51DAAA ([13]; 40 g ae/ha): 96.8%; Percent (%) Visual Control STEME 51DAAA ([14]; 10 g ae/ha): 73.3%; Percent (%) Visual Control STEME 51DAAA ([14]; 20 g ae/ha): 80.8%; Percent (%) Visual Control STEME 51DAAA ([14]; 40 g ae/ha): 83.3% |
